Read-outs that look alike come from different tables or passages of the source.
Tests used:
SD rats [1] = experiment: animal or person; type: in vivo, rat; conditions: iv; for minimal effective dose: Rattus norvegicus, read-out: Minimal effective anesthetic dose(mg/kg); for Onset time / Righting Reflex Duration / Sedation Duration / Minimal effective anesthetic dose(mg/kg): rat, in vivo
SD rats [2] = experiment: animal or person; type: in vivo; conditions: Rattus norvegicus, iv, read-out: Minimal effective analgesic dose(mg/kg)

## CCC(=O)N(C1CC1)C1CCN(c2cc(C(C)C)c(O)c(C(C)C)c2)CC1 [Cpd-5]
SD rats [1]
  minimal effective dose: 5 to 10 mg/kg
  Onset time: 0.45 min
  Righting Reflex Duration: 6.40 min
  Sedation Duration: 17.12 min

## COC(=O)CCC1CCN(c2cc(C(C)C)c(O)c([C@H](C)C3CC3)c2)CC1 [Cpd-82]
SD rats [1]
  minimal effective dose: < 5 mg/kg
  Onset time: 0.17 to 0.52 min
  Righting Reflex Duration: 0.87 to 3.42 min
  Sedation Duration: 3.67 to 13.02 min

## CCOC(=O)N(c1ccc(OC(C)C)cc1)N1CCN(c2cc(C(C)C)c(O)c(C(C)C)c2)CC1 [Cpd-100]
SD rats [1]
  minimal effective dose: 20 to 40 mg/kg
  Onset time: 0.37 to 0.95 min
  Righting Reflex Duration: 6.65 to 26.68 min
  Sedation Duration: 62.20 to 114.60 min
SD rats [2]
  minimal effective dose: 20 to 40 mg/kg

## CCOC(=O)N(c1cccc(C#N)c1)N1CCN(c2cc(C(C)C)c(O)c(C(C)C)c2)CC1 [Cpd-95]
SD rats [1]
  minimal effective dose: 20 to 40 mg/kg
  Onset time: 0.72 min
  Righting Reflex Duration: 13.75 min
  Sedation Duration: 54.33 min

## COC(=O)CN1CCC(N(CC(=O)OC)c2cc(C(C)C)c(O)c([C@H](C)C3CC3)c2)CC1 [Cpd-87]
SD rats [1]
  minimal effective dose: 10 to 20 mg/kg
  Onset time: 0.42 min
  Righting Reflex Duration: 1.85 min
  Sedation Duration: 19.32 min

## CC(C)c1cc(N2CCC(C(=O)OC(C)(C)C)CC2)cc([C@H](C)C2CC2)c1O [Cpd-85]
SD rats [1]
  Minimal effective anesthetic dose(mg/kg): A (key: A≤5 mg/kg; 5 mg/kg<B≤10 mg/kg; 10 mg/kg<C≤20 mg/kg; 20 mg/kg<D≤40 mg/k; E>40 mg/kg)
  Onset time: 0.18 to 0.55 min
  Righting Reflex Duration: 1.28 to 4.92 min
  Sedation Duration: 5.05 to 15.13 min

## CCOC(=O)N(c1ccccc1)N1CCN(c2cc(C(C)C)c(O)c(C(C)C)c2)CC1 [Cpd-51]
SD rats [1]
  minimal effective dose: 5 to 10 mg/kg
  Onset time: 0.65 to 0.97 min
  Righting Reflex Duration: 2.52 to 14.47 min
  Sedation Duration: 22.27 to 35.75 min

## CC(C)c1cc(N2CCC(CC(=O)OC(C)(C)C)CC2)cc([C@H](C)C2CC2)c1O [Cpd-81]
SD rats [1]
  minimal effective dose: < 5 mg/kg
  Onset time: 0.18 to 0.75 min
  Righting Reflex Duration: 9.28 to 40.37 min
  Sedation Duration: 27.22 to 57.86 min

## C=C[C@@H](C)c1cc(N2CCN(CC(=O)OC)CC2)cc(C(C)C)c1O [Cpd-89]
SD rats [1]
  minimal effective dose: 10 to 20 mg/kg
  Onset time: 0.18 min
  Righting Reflex Duration: 0.88 min
  Sedation Duration: 22.78 min

## CCOC(=O)N(c1ccc(F)cc1)N1CCN(c2cc(C(C)C)c(O)c(C(C)C)c2)CC1 [Cpd-64]
SD rats [1]
  minimal effective dose: 10 to 20 mg/kg
  Onset time: 0.43 to 0.47 min
  Righting Reflex Duration: 3.70 to 7.22 min
  Sedation Duration: 26.92 to 42.58 min

## COC(=O)CN(c1ccccc1)C1CCN(c2cc(C(C)C)c(O)c(C(C)C)c2)CC1 [Cpd-10]
SD rats [1]
  minimal effective dose: 5 to 10 mg/kg
  Onset time: 0.42 to 0.45 min
  Righting Reflex Duration: 6.47 to 27.50 min
  Sedation Duration: 47.22 to 66.70 min

## CCC(=O)N(CC1CCN(c2cc(C(C)C)c(O)c(C(C)C)c2)CC1)c1ccccc1 [Cpd-32]
SD rats [1]
  minimal effective dose: 5 to 10 mg/kg
  Onset time: 0.52 min
  Righting Reflex Duration: 2.67 min
  Sedation Duration: 19.68 min

## CCOC(=O)N(c1ccc(C)cc1)N1CCN(c2cc(C(C)C)c(O)c([C@H](C)C3CC3)c2)CC1 [Cpd-74]
SD rats [1]
  minimal effective dose: 20 to 40 mg/kg
  Onset time: 0.50 min
  Righting Reflex Duration: 26.28 min
  Sedation Duration: 69.23 min

## CCOC(=O)C1(c2ccc(F)cc2F)CCN(c2cc(C(C)C)c(O)c(C(C)C)c2)CC1 [Cpd-27]
SD rats [1]
  minimal effective dose: 20 to 40 mg/kg
  Onset time: 1.47 min
  Righting Reflex Duration: 36.80 min
  Sedation Duration: 67.40 min

## CCC(=O)N(c1ccccc1)C1CCN(c2cc(C(C)C)c(O)c([C@H](C)C3CC3)c2)CC1 [Cpd-18]
SD rats [1]
  minimal effective dose: 5 to 10 mg/kg
  Onset time: 0.20 to 0.57 min
  Righting Reflex Duration: 5.55 to 20.30 min
  Sedation Duration: 26.77 to 47.53 min

## CCC(=O)N(c1cc(C(C)C)c(O)c([C@H](C)C2CC2)c1)N1CCN(CCC(=O)OC)CC1 [Cpd-50]
SD rats [1]
  minimal effective dose: 20 to 40 mg/kg
  Onset time: 1.03 min
  Righting Reflex Duration: 1.47 min
  Sedation Duration: 66.48 min

## CCOC(=O)N(c1cccc(Cl)c1)N1CCN(c2cc(C(C)C)c(O)c([C@@H](C)C3CC3)c2)CC1 [Cpd-106]
SD rats [1]
  minimal effective dose: 10 to 20 mg/kg
  Onset time: 1.55 to 1.60 min
  Righting Reflex Duration: 3.35 to 24.10 min
  Sedation Duration: 98.82 to 103.67 min

## CCOC(=O)N(Cc1cccc(Cl)c1)N1CCN(c2cc(C(C)C)c(O)c(C(C)C)c2)CC1 [Cpd-127]
SD rats [1]
  minimal effective dose: 5 to 10 mg/kg
  Onset time: 0.55 min
  Righting Reflex Duration: 21.20 min
  Sedation Duration: 71.18 min

## CC(C)c1cc(N2CCC(C(=O)OC(C)(C)C)CC2)cc([C@H](C)C2CC2)c1O [Cpd-85-1]
SD rats [1]
  minimal effective dose: < 5 mg/kg
  Onset time: 0.40 to 1.33 min
  Righting Reflex Duration: 1.38 to 29.00 min
  Sedation Duration: 20.97 to 44.48 min

## COC(=O)CN1CCN(Cc2cc(C(C)C)c(O)c([C@H](C)C3CC3)c2)CC1 [Cpd-78-1]
SD rats [1]
  minimal effective dose: 5 to 10 mg/kg
  Onset time: 0.62 min
  Righting Reflex Duration: 2.73 min
  Sedation Duration: 22.58 min

## CCOC(=O)C1(c2ccccc2F)CCN(c2cc(C(C)C)c(O)c(C(C)C)c2)CC1 [Cpd-34]
SD rats [1]
  minimal effective dose: 10 to 20 mg/kg
  Onset time: 0.88 min
  Righting Reflex Duration: 10.28 min
  Sedation Duration: 29.75 min

## CCOC(=O)C1(c2cccc(Cl)c2)CCN(c2cc(C(C)C)c(O)c(C(C)C)c2)CC1 [Cpd-37]
SD rats [1]
  minimal effective dose: 5 to 10 mg/kg
  Onset time: 2.63 min
  Righting Reflex Duration: 0.65 min
  Sedation Duration: 21.73 min

## CCOC(=O)N(c1ccc(OC)c(F)c1)N1CCN(c2cc(C(C)C)c(O)c(C(C)C)c2)CC1 [Cpd-101]
SD rats [1]
  minimal effective dose: 10 to 20 mg/kg
  Onset time: 0.70 to 0.73 min
  Righting Reflex Duration: 2.05 to 2.58 min
  Sedation Duration: 38.73 to 57.17 min

## COC(=O)C1CCN(c2cc(C(C)C)c(O)c([C@H](C)C3CC3)c2)CC1 [Cpd-84-1]
SD rats [1]
  minimal effective dose: < 5 mg/kg
  Onset time: 0.43 to 0.77 min
  Righting Reflex Duration: 0.77 to 4.62 min
  Sedation Duration: 5.72 to 10.28 min

## CCOC(=O)N(c1ccccc1)N1CCN(c2cc(C(C)C)c(O)c([C@H](C)C3CC3)c2)CC1 [Cpd-59]
SD rats [1]
  minimal effective dose: 10 to 20 mg/kg
  Onset time: 0.37 to 0.85 min
  Righting Reflex Duration: 21.18 to 24.15 min
  Sedation Duration: 37.27 to 47.68 min

## CCOC(=O)C1(c2ccccn2)CCN(c2cc(C(C)C)c(O)c(C(C)C)c2)CC1.Cl [Cpd-23]
SD rats [1]
  minimal effective dose: 10 to 20 mg/kg
  Onset time: 0.53 min
  Righting Reflex Duration: 13.95 min
  Sedation Duration: 41.02 min

## COC(=O)C1CCN(c2cc(C(C)C)c(O)c([C@H](C)C3CC3)c2)CC1 [Cpd-84]
SD rats [1]
  Minimal effective anesthetic dose(mg/kg): A (key: A≤5 mg/kg; 5 mg/kg<B≤10 mg/kg; 10 mg/kg<C≤20 mg/kg; 20 mg/kg<D≤40 mg/k; E>40 mg/kg)
  Onset time: 0.30 to 0.75 min
  Righting Reflex Duration: 1.10 to 17.23 min
  Sedation Duration: 18.08 to 35.02 min

## CCOC(=O)N(c1ccc(OC)c(Br)c1)N1CCN(c2cc(C(C)C)c(O)c(C(C)C)c2)CC1 [Cpd-103]
SD rats [1]
  minimal effective dose: 20 to 40 mg/kg
  Onset time: 0.15 min
  Righting Reflex Duration: 14.85 min
  Sedation Duration: 107.67 min

## CC(C)C(=O)N(c1ccccc1)C1CCN(c2cc(C(C)C)c(O)c(C(C)C)c2)CC1 [Cpd-14]
SD rats [1]
  minimal effective dose: 5 to 10 mg/kg
  Onset time: 0.48 min
  Righting Reflex Duration: 17.60 min
  Sedation Duration: 42.83 min

## COC(=O)CC1CCN(Cc2cc(C(C)C)c(O)c([C@H](C)C3CC3)c2)CC1 [Cpd-77]
SD rats [1]
  minimal effective dose: < 5 mg/kg
  Onset time: 1.00 to 1.80 min
  Righting Reflex Duration: 0.67 to 1.95 min
  Sedation Duration: 5.00 to 22.33 min

## CC(=O)N(c1ccccc1)C1CCN(c2cc(C(C)C)c(O)c(C(C)C)c2)CC1 [Cpd-12]
SD rats [1]
  minimal effective dose: 10 to 20 mg/kg
  Onset time: 0.45 min
  Righting Reflex Duration: 6.85 min
  Sedation Duration: 55.12 min

## CC(C)OC(=O)N(c1ccccc1)C1CCN(c2cc(C(C)C)c(O)c(C(C)C)c2)CC1 [Cpd-15]
SD rats [1]
  minimal effective dose: 5 to 10 mg/kg
  Onset time: 0.67 min
  Righting Reflex Duration: 16.28 min
  Sedation Duration: 29.90 min

## COC(=O)CN1CC=C(c2cc(C(C)C)c(O)c([C@H](C)C3CC3)c2)CC1 [Cpd-86]
SD rats [1]
  minimal effective dose: < 5 mg/kg
  Onset time: 0.17 to 0.20 min
  Righting Reflex Duration: 1.15 to 10.33 min
  Sedation Duration: 16.40 to 19.62 min

## COC(=O)CC1CCN(c2cc(C(C)C)c(O)c([C@H](C)C3CC3)c2)CC1 [Cpd-80]
SD rats [1]
  minimal effective dose: < 5 mg/kg
  Onset time: 0.17 to 0.97 min
  Righting Reflex Duration: 1.50 to 12.97 min
  Sedation Duration: 10.17 to 28.53 min

## COC(=O)CN(C1CC1)C1CCN(c2cc(C(C)C)c(O)c(C(C)C)c2)CC1 [Cpd-8]
SD rats [1]
  minimal effective dose: 5 to 10 mg/kg
  Onset time: 0.40 min
  Righting Reflex Duration: 7.73 min
  Sedation Duration: 17.93 min

## CCOC(=O)N(Cc1ccoc1)N1CCN(c2cc(C(C)C)c(O)c(C(C)C)c2)CC1 [Cpd-126]
SD rats [1]
  minimal effective dose: 10 to 20 mg/kg
  Onset time: 0.42 min
  Righting Reflex Duration: 14.90 min
  Sedation Duration: 21.85 min

## CCOC(=O)N(c1cccc(C)c1)N1CCN(c2cc(C(C)C)c(O)c(C(C)C)c2)CC1 [Cpd-62]
SD rats [1]
  minimal effective dose: 10 to 20 mg/kg
  Onset time: 1.15 to 2.15 min
  Righting Reflex Duration: 1.22 to 17.28 min
  Sedation Duration: 55.48 to 85.02 min

## COC(=O)N(c1ccccc1)C1CCN(c2cc(C(C)C)c(O)c(C(C)C)c2)CC1 [Cpd-3]
SD rats [1]
  minimal effective dose: < 5 mg/kg
  Onset time: 0.20 to 0.67 min
  Righting Reflex Duration: 5.83 to 22.20 min
  Sedation Duration: 24.65 to 38.02 min

## CCOC(=O)N(c1cccc(OC)c1)N1CCN(c2cc(C(C)C)c(O)c([C@H](C)C3CC3)c2)CC1 [Cpd-71]
SD rats [1]
  minimal effective dose: 10 to 20 mg/kg
  Onset time: 0.55 min
  Righting Reflex Duration: 17.52 min
  Sedation Duration: 37.65 min

## CC(C)OC(=O)N(c1ccccc1)N1CCN(c2cc(C(C)C)c(O)c(C(C)C)c2)CC1 [Cpd-52]
SD rats [1]
  minimal effective dose: 5 to 10 mg/kg
  Onset time: 0.52 to 0.98 min
  Righting Reflex Duration: 13.92 to 16.42 min
  Sedation Duration: 28.53 to 94.30 min
